Data: patent US12281057B2 (VERTEX PHARMACEUTICALS INCORPORATED, priority 2017, dated 2025)

These compounds were tested against truncated form of human NaV 1.8 with full channel activity (Homo sapiens, UniProt Q9Y5Y9) (assay: E-VIPR Assay Method A for detecting and measuring Nav inhibition (HEK cells, membrane potential FRET dyes, electrical stimulation)). Conditions: HEK cells expressing human NaV 1.8, HS (human serum) in compound loading buffer, 11 point dose response, top dose 3 μM, Table 20A, read-out: Nav 1.8 MedChem Optical Assay EVIPR Assay Method A HS IC50.
Format: cell-based
How it was run: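 Read-out: FRET membrane-potential dye ratio (460/580 nm) before and during E-VIPR field stimulation at 10 Hz for 10 s, expressed as % activity between DMSO and positive controls. Cells: HEK with truncated human NaV1.8; compound preincubated 30 min at room temp, final DMSO 0.625%.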

truncated form of human NaV 1.8 with full channel activity, sequence (Q9Y5Y9 126-1722 limits assumed): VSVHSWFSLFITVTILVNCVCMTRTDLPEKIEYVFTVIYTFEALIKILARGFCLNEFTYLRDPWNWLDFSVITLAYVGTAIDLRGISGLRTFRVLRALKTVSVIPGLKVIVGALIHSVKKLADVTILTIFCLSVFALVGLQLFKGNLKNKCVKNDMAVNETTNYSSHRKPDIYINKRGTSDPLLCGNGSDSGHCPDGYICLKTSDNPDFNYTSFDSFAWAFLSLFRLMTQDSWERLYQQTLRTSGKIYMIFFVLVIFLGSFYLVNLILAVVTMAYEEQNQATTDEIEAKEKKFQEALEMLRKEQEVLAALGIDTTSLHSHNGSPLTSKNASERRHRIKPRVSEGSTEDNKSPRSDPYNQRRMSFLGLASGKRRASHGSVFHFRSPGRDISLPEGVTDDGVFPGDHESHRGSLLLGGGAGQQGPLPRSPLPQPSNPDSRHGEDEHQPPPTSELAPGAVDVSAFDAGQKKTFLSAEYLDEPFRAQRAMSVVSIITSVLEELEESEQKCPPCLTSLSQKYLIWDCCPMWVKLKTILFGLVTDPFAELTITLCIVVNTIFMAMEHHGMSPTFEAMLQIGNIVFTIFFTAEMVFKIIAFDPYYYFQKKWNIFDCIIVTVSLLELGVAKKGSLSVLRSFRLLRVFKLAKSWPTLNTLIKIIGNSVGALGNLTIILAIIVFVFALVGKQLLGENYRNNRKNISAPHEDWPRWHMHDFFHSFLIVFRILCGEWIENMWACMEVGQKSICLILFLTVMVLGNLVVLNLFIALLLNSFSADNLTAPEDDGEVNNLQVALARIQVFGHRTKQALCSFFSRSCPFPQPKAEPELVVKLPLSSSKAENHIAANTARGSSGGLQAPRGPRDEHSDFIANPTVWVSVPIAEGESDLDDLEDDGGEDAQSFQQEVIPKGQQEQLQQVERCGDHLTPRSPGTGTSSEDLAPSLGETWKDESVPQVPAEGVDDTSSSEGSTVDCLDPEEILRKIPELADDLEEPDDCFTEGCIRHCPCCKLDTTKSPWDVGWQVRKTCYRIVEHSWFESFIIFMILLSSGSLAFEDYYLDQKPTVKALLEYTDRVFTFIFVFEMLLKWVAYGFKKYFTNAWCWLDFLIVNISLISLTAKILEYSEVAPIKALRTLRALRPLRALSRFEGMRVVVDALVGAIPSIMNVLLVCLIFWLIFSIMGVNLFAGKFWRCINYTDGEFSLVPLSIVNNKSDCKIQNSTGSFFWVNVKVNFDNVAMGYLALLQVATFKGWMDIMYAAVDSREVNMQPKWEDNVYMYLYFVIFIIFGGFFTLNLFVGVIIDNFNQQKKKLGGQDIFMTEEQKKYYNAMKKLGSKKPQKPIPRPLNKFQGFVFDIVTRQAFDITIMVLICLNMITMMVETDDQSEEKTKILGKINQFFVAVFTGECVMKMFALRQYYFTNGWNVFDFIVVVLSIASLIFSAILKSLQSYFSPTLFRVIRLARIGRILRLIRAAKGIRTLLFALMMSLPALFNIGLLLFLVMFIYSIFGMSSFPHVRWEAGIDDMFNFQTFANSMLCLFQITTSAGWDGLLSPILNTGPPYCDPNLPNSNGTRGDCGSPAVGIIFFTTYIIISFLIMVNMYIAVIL

First: COc1cc(OC(F)(F)F)ccc1Oc1cc(C2(C)CC2)ncc1C(=O)Nc1ccc(F)c(C(N)=O)c1 [Compound 102, N-(3-Carbamoyl-4-fluoro-phenyl)-4-[2-methoxy-4-(trifluoromethoxy)phenoxy]-6-(1-methylcyclopropyl)pyridine-3-carboxamide]
Second: COc1cc(OC(F)(F)F)ccc1Oc1cc(C2(C)CC2)ncc1C(=O)Nc1ccnc(C(N)=O)c1 [Compound 105, N-(2-Carbamoyl-4-pyridyl)-4-[2-methoxy-4-(trifluoromethoxy)phenoxy]-6-(1-methylcyclopropyl)pyridine-3-carboxamide]
The IC50 of the first is 2-fold lower: 22 nM for the first, 44 nM for the second.

Going from `COc1cc(OC(F)(F)F)ccc1Oc1cc(C(C)(C)F)ncc1C(=O)Nc1ccc(F)c(C(N)=O)c1` [Compound 103, N-(3-Carbamoyl-4-fluoro-phenyl)-6-(1-fluoro-1-methyl-ethyl)-4-[2-methoxy-4-(trifluoromethoxy)phenoxy]pyridine-3-carboxamide] to `COc1cc(OC(F)(F)F)ccc1Oc1cc(C(C)(C)F)ncc1C(=O)Nc1ccnc(C(N)=O)c1` [Compound 104, N-(2-Carbamoyl-4-pyridyl)-6-(1-fluoro-1-methyl-ethyl)-4-[2-methoxy-4-(trifluoromethoxy)phenoxy]pyridine-3-carboxamide], the IC50 rises from 34 nM to 64 nM (1.9-fold).

First: COc1cc(OC(F)(F)F)ccc1Oc1cc(C2CC2(F)F)ncc1C(=O)Nc1ccnc(C(N)=O)c1 (stereo not shown) [Compound 107, N-(2-Carbamoyl-4-pyridyl)-6-(2,2-difluorocyclopropyl)-4-[2-methoxy-4-(trifluoromethoxy)phenoxy]pyridine-3-carboxamide]
Second: COc1cc(OC(F)(F)F)ccc1Oc1cc(C2CC2(F)F)ncc1C(=O)Nc1ccc(F)c(C(N)=O)c1 (stereo not shown) [Compound 108, N-(3-Carbamoyl-4-fluoro-phenyl)-6-(2,2-difluorocyclopropyl)-4-[2-methoxy-4-(trifluoromethoxy)phenoxy]pyridine-3-carboxamide]
The IC50 of the first is 2.5-fold higher: 123 nM for the first, 50 nM for the second.

`NC(=O)c1cc(NC(=O)c2c(Oc3ccc(OC(F)(F)F)cc3)ccc(C(F)(F)F)c2F)cc[n+]1[O-]` [Compound 110, 4-[[2-Fluoro-6-[4-(trifluoromethoxy)phenoxy]-3-(trifluoromethyl)benzoyl]amino]-1-oxido-pyridin-1-ium-2-carboxamide] and `NC(=O)c1cc(NC(=O)c2c(Oc3ccc(OC(F)(F)F)cc3)ccc(C(F)(F)F)c2F)ccc1Cl` [Compound 134, N-(3-carbamoyl-4-chloro-phenyl)-2-fluoro-6-[4-(trifluoromethoxy)phenoxy]-3-(trifluoromethyl)benzamide] are within 1.5-fold of each other in IC50: 55 nM for the first, 68 nM for the second.

First: [2H]C([2H])([2H])Oc1cc(OC(F)(F)F)ccc1Oc1ccc(C(F)(F)F)c(F)c1C(=O)Nc1cc[n+]([O-])c(C(N)=O)c1 [Compound 115, 4-[[2-Fluoro-6-[2-(trideuteriomethoxy)-4-(trifluoromethoxy)phenoxy]-3-(trifluoromethyl)benzoyl]amino]-1-oxido-pyridin-1-ium-2-carboxamide]
Second: [2H]C([2H])([2H])Oc1cc(OC(F)(F)F)ccc1Oc1ccc(C(F)(F)F)c(F)c1C(=O)Nc1ccc(C(N)=O)cc1 [Compound 127, N-(4-carbamoylphenyl)-2-fluoro-6-[2-(trideuteriomethoxy)-4-(trifluoromethoxy)phenoxy]-3-(trifluoromethyl)benzamide]
The IC50 of the first is 1.5-fold higher: 6 nM for the first, 4 nM for the second. The second is the more potent here.

First: COc1cc(OC(F)(F)F)ccc1Oc1cc(C2CC2)c(F)cc1C(=O)Nc1ccnc(C(N)=O)c1 [Compound 116, 4-[[4-Cyclopropyl-5-fluoro-2-[2-methoxy-4-(trifluoromethoxy)phenoxy]benzoyl]amino]pyridine-2-carboxamide]
Second: COc1cc(OC(F)(F)F)ccc1Oc1cc(C2CC2)c(C(F)(F)F)cc1C(=O)Nc1ccnc(C(N)=O)c1 [Compound 125, 4-[[4-Cyclopropyl-2-[2-methoxy-4-(trifluoromethoxy)phenoxy]-5-(trifluoromethyl)benzoyl]amino]pyridine-2-carboxamide]
The IC50 of the first is 4.3-fold higher: 145 nM for the first, 34 nM for the second.

Going from `COc1cc(OC(F)(F)F)ccc1Oc1cncc(F)c1C(=O)Nc1ccc(F)c(C(N)=O)c1` [Compound 117, N-(3-Carbamoyl-4-fluoro-phenyl)-3-fluoro-5-[2-methoxy-4-(trifluoromethoxy)phenoxy]pyridine-4-carboxamide] to `COc1cc(OC(F)(F)F)ccc1Oc1cncc(OC)c1C(=O)Nc1ccc(F)c(C(N)=O)c1` [Compound 138, N-(3-Carbamoyl-4-fluoro-phenyl)-3-methoxy-5-[2-methoxy-4-(trifluoromethoxy)phenoxy]pyridine-4-carboxamide], the IC50 rises from 180 nM to 1400 nM (7.8-fold). The first is the more potent here.

Compared with `COc1cc(OC(F)(F)F)ccc1Oc1ccc(C(F)(F)F)c(F)c1C(=O)Nc1cc(C(N)=O)c(F)cc1C` [Compound 118], `COc1cc(OC(F)(F)F)ccc1Oc1ccc(C(F)(F)F)c(F)c1C(=O)Nc1cc(C(N)=O)ncc1C` [Compound 120, 4-[[2-Fluoro-6-[2-methoxy-4-(trifluoromethoxy)phenoxy]-3-(trifluoromethyl)benzoyl]amino]-5-methyl-pyridine-2-carboxamide] is 20-fold lower in IC50: 100 nM for the first, 5 nM for the second.

Compared with `COc1cc(OC(F)(F)F)ccc1Oc1cc(C2(C(F)(F)F)CC2)ncc1C(=O)Nc1ccnc(C(N)=O)c1` [Compound 119, N-(2-Carbamoyl-4-pyridyl)-4-[2-methoxy-4-(trifluoromethoxy)phenoxy]-6-[1-(trifluoromethyl)cyclopropyl]pyridine-3-carboxamide], `COc1cc(OC(F)(F)F)ccc1Oc1cc2c(cc1C(=O)Nc1ccnc(C(N)=O)c1)OC(F)(F)O2` [Compound 121, 4-[[2,2-Difluoro-6-[2-methoxy-4-(trifluoromethoxy)phenoxy]-1,3-benzodioxole-5-carbonyl]amino]pyridine-2-carboxamide] is 3.8-fold higher in IC50: 48 nM for the first, 180 nM for the second.

`COc1cc(OC(F)(F)F)ccc1Oc1cc2c(cc1C(=O)Nc1ccc(F)c(C(N)=O)c1)OC(F)(F)O2` [Compound 122, N-(3-Carbamoyl-4-fluoro-phenyl)-2,2-difluoro-6-[2-methoxy-4-(trifluoromethoxy)phenoxy]-1,3-benzodioxole-5-carboxamide] and `COc1cc(Oc2ccc(C(F)(F)F)c(F)c2C(=O)Nc2ccc(F)c(C(N)=O)c2)ccc1OC(F)(F)F` [Compound 126, N-(3-Carbamoyl-4-fluoro-phenyl)-2-fluoro-6-[3-methoxy-4-(trifluoromethoxy)phenoxy]-3-(trifluoromethyl)benzamide] are within 1.5-fold of each other in IC50: 56 nM for the first, 47 nM for the second.

Compared with `COc1cc(OC(F)(F)F)ccc1Oc1ccc(C(F)(F)F)c(F)c1C(=O)Nc1cc(C(N)=O)ncc1F` [Compound 123, 5-Fluoro-4-[[2-fluoro-6-[2-methoxy-4-(trifluoromethoxy)phenoxy]-3-(trifluoromethyl)benzoyl]amino]pyridine-2-carboxamide], `COc1cc(OC(F)(F)F)ccc1Oc1ccc(C(F)(F)F)c(OC)c1C(=O)Nc1cc(C(N)=O)ncc1F` [Compound 128, 5-Fluoro-4-(2-methoxy-6-(2-methoxy-4-(trifluoromethoxy)phenoxy)-3-(trifluoromethyl)benzamido)picolinamide] is 3.6-fold higher in IC50: 5 nM for the first, 18 nM for the second.

Going from `Cc1cc(F)c(C(N)=O)cc1NC(=O)c1c(Oc2ccc(OC(F)(F)F)cc2)ccc(C(F)(F)F)c1F` [Compound 124, N-(5-Carbamoyl-4-fluoro-2-methyl-phenyl)-2-fluoro-6-[4-(trifluoromethoxy)phenoxy]-3-(trifluoromethyl)benzamide] to `COc1c(C(F)(F)F)ccc(Oc2ccc(OC(F)(F)F)cc2)c1C(=O)Nc1ccc(C(N)=O)c(F)c1` [Compound 132, N-(4-Carbamoyl-3-fluoro-phenyl)-2-methoxy-6-[4-(trifluoromethoxy)phenoxy]-3-(trifluoromethyl)benzamide], the IC50 falls from 220 nM to 140 nM (1.6-fold).

Compared with `COc1cc(OC(F)(F)F)ccc1Oc1ccc(F)c(Cl)c1C(=O)Nc1cc(C(N)=O)ncc1C` [Compound 129, 4-[[2-Chloro-3-fluoro-6-[2-methoxy-4-(trifluoromethoxy)phenoxy]benzoyl]amino]-5-methyl-pyridine-2-carboxamide], `COc1cc(OC(F)(F)F)ccc1Oc1cc(Cl)cc(F)c1C(=O)Nc1cc(C(N)=O)ncc1C` [Compound 130, 4-[[4-Chloro-2-fluoro-6-[2-methoxy-4-(trifluoromethoxy)phenoxy]benzoyl]amino]-5-methyl-pyridine-2-carboxamide] is 2.6-fold lower in IC50: 69 nM for the first, 27 nM for the second.

Going from `COc1c(C(F)(F)F)ncc(Oc2ccc(OC(F)(F)F)cc2)c1C(=O)Nc1cc(C(N)=O)ncc1C` [Compound 131, N-(2-Carbamoyl-5-methyl-4-pyridyl)-3-methoxy-5-[4-(trifluoromethoxy)phenoxy]-2-(trifluoromethyl)pyridine-4-carboxamide] to `[2H]C([2H])([2H])Oc1cc(OC(F)(F)F)ccc1Oc1ccc(C(F)(F)F)c(F)c1C(=O)Nc1cc(C(N)=O)ncc1C` [Compound 137, 4-[[2-Fluoro-6-[2-(trideuteriomethoxy)-4-(trifluoromethoxy)phenoxy]-3-(trifluoromethyl)benzoyl]amino]-5-methyl-pyridine-2-carboxamide], the IC50 falls from 170 nM to 5 nM (34-fold). The second is the more potent here.

Compared with `COc1cc(OC(F)(F)F)ccc1Oc1cc(Cl)cc(OC)c1C(=O)Nc1cc(C(N)=O)ncc1C` [Compound 133, 4-[[4-Chloro-2-methoxy-6-[2-methoxy-4-(trifluoromethoxy)phenoxy]benzoyl]amino]-5-methyl-pyridine-2-carboxamide], `NC(=O)c1cc(NC(=O)c2c(Oc3ccc(OC(F)F)cc3F)ccc(C(F)(F)F)c2F)ccn1` [Compound 136, 4-[[6-[4-(Difluoromethoxy)-2-fluoro-phenoxy]-2-fluoro-3-(trifluoromethyl)benzoyl]amino]pyridine-2-carboxamide] is 3.1-fold lower in IC50: 430 nM for the first, 140 nM for the second.

With `Cn1nccc1-c1cc(F)ccc1Oc1ccc(C(F)(F)F)c(F)c1C(=O)Nc1ccc(F)c(C(N)=O)c1` [Compound 135, N-(3-Carbamoyl-4-fluoro-phenyl)-2-fluoro-6-[4-fluoro-2-(2-methylpyrazol-3-yl)phenoxy]-3-(trifluoromethyl)benzamide] the IC50 was 140 nM.
